Assay results taken from patent US11524966B1 (Valo Early Discovery, Inc., priority 2017, dated 2022).

Target: T1, USP28 (His-tagged USP28-FL-mammalian) (Homo sapiens, UniProt Q96RU2)
T1 construct: Expression of USP28 (1-1077)-TEV-6*His (pTT5 vector); made in house; host or cells: Expi293f cells (pTT5 vector)
T1 sequence (Q96RU2 1-1077): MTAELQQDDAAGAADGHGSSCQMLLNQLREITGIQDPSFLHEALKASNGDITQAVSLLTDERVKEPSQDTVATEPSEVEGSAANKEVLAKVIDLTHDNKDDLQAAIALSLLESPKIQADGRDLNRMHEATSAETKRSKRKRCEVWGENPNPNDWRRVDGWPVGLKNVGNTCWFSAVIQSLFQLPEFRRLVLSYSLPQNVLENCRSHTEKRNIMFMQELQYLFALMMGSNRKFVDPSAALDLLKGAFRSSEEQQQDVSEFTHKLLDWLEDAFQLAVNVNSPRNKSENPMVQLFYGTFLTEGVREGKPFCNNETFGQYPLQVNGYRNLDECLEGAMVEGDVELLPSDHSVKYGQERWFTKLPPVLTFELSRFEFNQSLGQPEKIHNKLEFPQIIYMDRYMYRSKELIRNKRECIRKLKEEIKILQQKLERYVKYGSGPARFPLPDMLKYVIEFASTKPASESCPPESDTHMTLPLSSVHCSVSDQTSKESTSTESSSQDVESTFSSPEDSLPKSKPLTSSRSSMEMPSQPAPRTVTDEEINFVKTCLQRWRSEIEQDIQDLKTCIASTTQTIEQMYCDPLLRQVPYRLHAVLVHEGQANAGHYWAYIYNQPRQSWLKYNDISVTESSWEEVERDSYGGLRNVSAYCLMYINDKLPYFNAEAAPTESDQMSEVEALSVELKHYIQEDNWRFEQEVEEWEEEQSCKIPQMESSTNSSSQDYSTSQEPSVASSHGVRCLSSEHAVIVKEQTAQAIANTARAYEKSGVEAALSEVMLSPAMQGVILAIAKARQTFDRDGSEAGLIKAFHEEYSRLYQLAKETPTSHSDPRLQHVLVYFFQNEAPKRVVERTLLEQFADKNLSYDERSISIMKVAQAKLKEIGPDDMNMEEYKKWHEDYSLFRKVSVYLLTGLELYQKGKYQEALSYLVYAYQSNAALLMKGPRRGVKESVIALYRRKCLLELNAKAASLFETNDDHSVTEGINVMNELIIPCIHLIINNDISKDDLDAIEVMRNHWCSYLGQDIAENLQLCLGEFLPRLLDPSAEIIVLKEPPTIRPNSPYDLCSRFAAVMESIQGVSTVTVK
Assay: Ubiquitin-Rhodamine 110 Assay for USP28 Activity, Example A-1(a)
Format: biochemical
Settings: Ubiquitin-Rhodamine 110 assay, Example A-1(a); read-out: USP28 A-1(a) IC50 range
Procedure: Example A-1(a): Biochemical Assay: Ubiquitin-Rhodamine 110 Assay for USP28 Activity
The assay was performed in a final volume of 9 μL in assay buffer containing 20 mM Tris-HCl (pH 8.0, (1M Tris-HCl, pH 8.0 solution; Corning 46-031-CM)), 3 mM BME (2-Mercaptoethanol; Sigma 63689-25ML-F), 0.03% BGG (0.22 μM filtered, Sigma, G7516-25G), and 0.01% Triton X-100 (Sigma, T9284-10L). Nanoliter quantities of 10-point, 3-fold serial dilution in DMSO was pre-dispensed into 1536 assay plates (Corning, #3724BC) for a final test concentration of 25 μM to 1.3 nM, top to lowest dose, respectively. Enzyme USP28, construct His-tagged USP28-FL-mammalian, (protein expression and purification procedure described below). Concentration and incubation times were optimized for the maximal signal-to-background while maintaining initial velocity conditions at a fixed substrate concentration. The final concentration of the enzyme in the assay was 75 μM. Final substrate (Ub-Rh110; Ubiquitin-Rhodamine 110, UbiQ-126) concentration was 25 nM with [Ub-Rh110]<<Km. 3 μL of 2× enzyme was added to assay plates (pre-stamped with compound) preincubated with […] for 30 minutes and then 3 μL of 2×Ub-Rh110 was added to assay plates. Plates were incubated for 45 minutes at room temperature before addition of 3 μL of stop solution (final concentration of 10 mM citric acid (Sigma, 251275-500G)). Fluorescence was read on the Envision (Excitation at 485 nm and Emission at 535 nm; Perkin Elmer) or on the PheraSTAR (Excitation at 485 nm and Emission at 535 nm; BMG Labtech).
Procedure for the Protein Expression and Purification for Construct His-Tagged USP28-FL-Mammalian
Expression of USP28 (1-1077)-TEV-6*His (pTT5 vector) was carried out in Expi293f cells (sequence derived from uniprot ID: Q96RU2-1). Cells were re-suspended in lysis buffer B 50 mM Bicine, pH 8.0, 20 mM NaCl, 5% glycerol, 0.1% CHAPS, 5 mM β-ME, 1 mM PMSF, 1 ug/ml Leupeptin, 1 ug/ml Pepstatin) and lysed by sonication. Insoluble material was removed by centrifugation and the supernatant was loaded onto a Ni-NTA column (GE Healthcare) equilibrated with Ni Buffer A (50 mM Bicine, pH 8.0, 20 mM NaCl, 5% glycerol, 0.1% CHAPS, 5 mM β-ME.) and washed with Ni Buffer A+20 mM imidazole until A280 reached baseline. The protein was eluted with Ni Buffer B (50 mM Bicine, pH 8.0, 20 mM NaCl, 5% glycerol, 0.1% CHAPS, 5 mM β-ME, 300 mM imidazole.). The protein was further purified using a Superdex™ 200 10/300 GL column (GE Healthcare) equilibrated with 50 mM Bicine, pH 8.0, 20 mM NaCl, 5% glycerol, 0.1% CHAPS, 5 mM β-ME. The protein was concentrated to 2.5 mg ml^−1, flash-frozen in liquid N2 and stored at −80° C.
For assay formats Example A-1(a), A-1(b), and A-2, data were reported as percent inhibition compared with control wells based on the following equation: % inh=1−((FLU−AveLow)/(AveHigh−AveLow)) where FLU=measured Fluorescence, AveLow=average Fluorescence of no enzyme control (n=16), and AveHigh=average Fluorescence of DMSO control (n=16). IC50 values were determined by curve fitting of the standard 4 parameter logistic fitting algorithm included in the Activity Base software package: IDBS XE Designer Model 205. Data is fitted using the Levenburg Marquardt algorithm.

Row | SMILES | IC50 [nM]
1 | CO[C@@]12CCN[C@H]1CN(c1ccc3c(c1)OC[C@H](NC(=O)c1sc4nc(C)ccc4c1N)C3)C2 [Example 289, N-[(3R)-7-[(3aR,6aS)-3a-methoxy-octahydropyrrolo[2,3-c]pyrrol-5-yl]-3,4-dihydro-2H-1-benzopyran-3-yl]-3-amino-6-methylthieno[2,3-b]pyridine-2-carboxamide] | 1 to 50
2 | CO[C@]12CCN[C@@H]1CN(c1ccc3c(c1)OC[C@H](NC(=O)c1sc4nc(C)ccc4c1N)C3)C2 [Example 290, N-[(3R )-7-[(3aS,6aR)-3a-methoxy-octahydropyrrolo[2,3-c]pyrrol-5-yl]-3,4-dihydro-2H-1-benzopyran-3-yl]-3-amino-6-methylthieno[2,3-b]pyridine-2-carboxamide] | 1 to 50
3 | Cc1ccc2c(N)c(C(=O)N[C@H]3CCc4nc(N5C[C@@H]6CCN[C@H](C5)C6(F)F)ccc4C3)sc2n1 [Example 367, 3-amino-N-[(6S)-2-[(1R,5S)-9,9-difluoro-2,7-diazabicyclo[3.3.1]nonan-7-yl]-5,6,7,8-tetrahydroquinolin-6-yl]-6-methylthieno[2,3-b]pyridine-2-carboxamide] | 1 to 50
4 | Cc1ccc2c(N)c(C(=O)N[C@H]3CCc4nc(N5C[C@H]6CCN[C@@H](C5)C6(F)F)ccc4C3)sc2n1 [Example 368, 3-amino-N-[(6S)-2-[(1S,5R)-9,9-difluoro-2,7-diazabicyclo[3.3.1]nonan-7-yl]-5,6,7,8-tetrahydroquinolin-6-yl]-6-methylthieno[2,3-b]pyridine-2-carboxamide] | 1 to 50
5 | CCn1ccc2cc(C(=O)N[C@H]3CCc4nc(N5C[C@H](C(F)F)[C@@H](N)C5)ccc4C3)cnc21 [Example 370, N-[(6S)-2-[(3R,4S)-3-amino-4-(difluoromethyl)pyrrolidin-1-yl]-5,6,7,8-tetrahydroquinolin-6-yl]-1-ethyl-1H-pyrrolo[2,3-b]pyridine-5-carboxamide] | 200 to 2000
6 | CCn1ccc2cc(C(=O)N[C@H]3CCc4nc(N5C[C@@H](N)[C@H](C(F)F)C5)ccc4C3)cnc21 [Example 371, N-[(6S)-2-[(3S,4R)-3-amino-4-(difluoromethyl)pyrrolidin-1-yl]-5,6,7,8-tetrahydroquinolin-6-yl]-1-ethyl-1H-pyrrolo[2,3-b]pyridine-5-carboxamide] | 200 to 2000
7 | CC(=O)N[C@@H]1CN(c2ccc3c(n2)CC[C@H](NC(=O)c2sc4nc(C)ccc4c2N)C3)C[C@H]1C(F)F [Example 372, 3-amino-N-[(6S)-2-[(3R,4S)-3-(difluoromethyl)-4-acetamidopyrrolidin-1-yl]-5,6,7,8-tetrahydroquinolin-6-yl]-6-methylthieno[2,3-b]pyridine-2-carboxamide] | 50 to 200
8 | COCC1(N)CN(c2ccc3c(c2)OC[C@H](NC(=O)c2sc4nc(C)ccc4c2N)C3)C1 [Example 373, 3-amino-N-[(3R)-7-[3-amino-3-(methoxymethyl)azetidin-1-yl]-3,4-dihydro-2H-1-benzopyran-3-yl]-6-methylthieno[2,3-b]pyridine-2-carboxamide] | 1 to 50
9 | Cc1ccc2c(N)c(C(=O)N[C@H]3CCc4nc(N5CCN[C@H](C(F)F)C5)ccc4C3)sc2n1 [Example 374, 3-amino-N-[(6S)-2-[(3S)-3-(difluoromethyl)piperazin-1-yl]-5,6,7,8-tetrahydroquinolin-6-yl]-6-methylthieno[2,3-b]pyridine-2-carboxamide] | 50 to 200
10 | Cc1ccc2c(N)c(C(=O)N[C@H]3CCc4nc(N5CCN[C@@H](C(F)F)C5)ccc4C3)sc2n1 [Example 375, 3-amino-N-[(6S)-2-[(3R)-3-(difluoromethyl)piperazin-1-yl]-5,6,7,8-tetrahydroquinolin-6-yl]-6-methylthieno[2,3-b]pyridine-2-carboxamide] | 50 to 200
11 | CN[C@H]1CN(c2ccc3c(n2)CC[C@H](NC(=O)c2sc4nc(C)ccc4c2N)C3)C[C@@H]1C(F)F [Example 376, 3-amino-N-[(6S)-2-[(3S,4R)-3-(difluoromethyl)-4-(methylamino)pyrrolidin-1-yl]-5,6,7,8-tetrahydroquinolin-6-yl]-6-methylthieno[2,3-b]pyridine-2-carboxamide] | 50 to 200
12 | CN[C@@H]1CN(c2ccc3c(n2)CC[C@H](NC(=O)c2sc4nc(C)ccc4c2N)C3)C[C@H]1C(F)F [Example 377, 3-amino-N-[(6S)-2-[(3R,4S)-3-(difluoromethyl)-4-(methylamino)pyrrolidin-1-yl]-5,6,7,8-tetrahydroquinolin-6-yl]-6-methylthieno[2,3-b]pyridine-2-carboxamide] | 50 to 200
13 | Cc1ccc2c(N)c(C(=O)N[C@H]3COc4nc(N5C[C@H](C(F)F)[C@@H](N)C5)ccc4C3)sc2n1 [Example 378, 3-amino-N-[(3R)-7-[(3R,4S)-3-amino-4-(difluoromethyl)pyrrolidin-1-yl]-2H,3H,4H-pyrano[2,3-b]pyridin-3-yl]-6-methylthieno[2,3-b]pyridine-2-carboxamide] | 50 to 200
14 | Cc1ccc2c(N)c(C(=O)N[C@H]3COc4nc(N5C[C@@H](N)[C@H](C(F)F)C5)ccc4C3)sc2n1 [Example 379, 3-amino-N-[(3R)-7-[(3S,4R)-3-amino-4-(difluoromethyl)pyrrolidin-1-yl]-2H,3H,4H-pyrano[2,3-b]pyridin-3-yl]-6-methylthieno[2,3-b]pyridine-2-carboxamide] | 200 to 2000
15 | Cc1ccc2c(N)c(C(=O)N[C@H]3CCc4nc(N5C[C@H](C(F)F)[C@@H](N)C5)ncc4C3)sc2n1 [Example 380, 3-amino-N-[(6S)-2-[(3R,4S)-3-amino-4-(difluoromethyl)pyrrolidin-1-yl]-5,6,7,8-tetrahydroquinazolin-6-yl]-6-methylthieno[2,3-b]pyridine-2-carboxamide] | 50 to 200
